Publication PMC9706574, “A Versatile and Sustainable Multicomponent Platform for the Synthesis of Protein Degraders: Proof-of-Concept Application to BRD4-Degrading PROTACs” (Journal of Medicinal Chemistry, 2022)
≈ marks a conversion by molar mass, not a printed value. Where a SMILES comes first, the peptide text is derived from it. [ ]: non-standard residue; d: D form. The star is where a group is joined. JQ1acid = Cc1sc2c(c1C)C(c1ccc(Cl)cc1)=N[C@@H](CC(=O)*)c1nnc(C)n1-2; NHBn(4-(4-Me-thiazol-5-yl)) = Cc1ncsc1-c1ccc(CN*)cc1; Hyp = O=C(O)[C@@H]1C[C@@H](O)CN1; Tle = CC(C)(C)[C@H](N)C(=O)O; Sar = CNCC(=O)O

How the values were obtained:
[1] = molecular target: T1, BRD4 (Homo sapiens, UniProt O60885); assay: BRD4 degradation by Western blot analysis in MDA-MB-231 cells; assay type: cell-based; conditions: for dose-response of BRD4 degradation (in words): 100 nM to 10 μM; for effect of cotreatment with proteasome inhibitor bortezomib on BRD4 degradation: 1 μM compound + 5 nM bortezomib; for BRD4 degradation in time-course experiments (in words) / Densitometry (% of control), BRD4-immunoreactive band relative to DMSO vehicle: 1 μM; for BRD4 degradation in time-course experiments (in words): 4 up to 24 h
T1 construct: endogenous in cells; host or cells: MDA-MB-231
Procedure: In Vitro Biological Validation of PROTACs and Preliminary Assessment of Thermodynamic Aqueous Solubility and Metabolic Stability of Selected BRD4-Degrading PROTACs. With the aim of proving the utility of our platform and the compatibility of the substructures accessible by the MCR strategy with a proximity-based degradation, the ability of our PROTAC candidates to effectively act as BRD4 degraders was tested in the human breast cancer cell line MDA-MB-231, known to express detectable levels of this protein.
The human breast adenocarcinoma MDA-MB-231 cell line was cultured in DMEM (Sigma-Aldrich) supplemented with 10% fetal bovine serum (FBS), 1% glutamine, and 1% penicillin/streptomycin. For Western blot analysis, […] cells/well were plated into 12-well plates containing DMEM complete growth medium, to be treated with the synthesized compounds, at the indicated concentrations, for different time lengths. After treatments, cells were scraped and lysed to obtain protein extract using RIPA lysis buffer supplemented with protease (PIC, Merck-Millipore) and phosphatase inhibitors (NaF 1 M, Na3VO4 1 M, PMSF […], Sigma-Aldrich). Cells lysates were centrifuged at 13 000 rpm for 10 min at 4 °C to remove membranes and insoluble fractions. Protein quantification of the supernatant fraction was performed with Braford protein assay (Sigma-Aldrich). […] aliquots of protein extracts were used for 12% SDS-PAGE. After transfer into nitrocellulose membranes, BRD4 and tubulin protein levels were evaluated by immunoblotting using a rabbit polyclonal anti-BRD4 (Bethyl Laboratories) and a mouse monoclonal α-tubulin (Sigma-Aldrich) IgG as primary antibodies and an antirabbit or antimouse HRP-conjugated secondary antibody (Bio-Rad Laboratories). Protein levels were detected by chemiluminescent conversion of the HRP substrate LumiGLO (Thermo Fisher Scientific) using the ChemiDoc imaging system (Bio-Rad). Band densitometry was assessed, normalized to α-tubulin immunoreactive bands, and reported as percentage of the 0.3% DMSO control lane.

[2] = Thermodynamic aqueous solubility; assay type: physicochemical; conditions: 2 h
Procedure: Saturated solutions were prepared by dissolving the tested compounds in 0.1 M phosphate-buffered saline (pH = 7.4) or 0.01 N HCl solutions and sonicated for 30 s. After equilibration on an orbital shaker at 25 °C for 2 h, the solutions were centrifuged at 13 000 rpm for 5 min and filtered through a 0.2 μm regenerated cellulose (RC) syringe filter. A 400 μL aliquot of each filtrate was diluted with 100 μL of acetonitrile and analyzed by LC-UV. When the measured peak area was out of the calibration range (5–100 μM), the sample was further diluted in water–acetonitrile 1:1 mixture.

[3] = 8 h treatment, MDA-MB-231 cells, from Western blot densitometry
[4] = 0.01 N HCl solution, HCl 0.01 N, pH 2.0, 25 °C
[5] = phosphate-buffered saline, PBS 0.1 M, pH 7.4, 25 °C

Row | effect of cotreatment with proteasome inhibitor bortezomib on BRD4 degradation ([1]; 8 h) | DC50 [1, 3] [nM] | Dmax ([1]; 8 h treatment, MDA-MB-231 cells, from Western blot densitometry, read-out: Dmax (maximal % of reduction toward DMSO control lane)) [%] | solubility thermodynamic at 2 h [2, 4] [µM] | solubility thermodynamic at 2 h [2, 5] [µM] | melting point | Densitometry (% of control), BRD4-immunoreactive band relative to DMSO vehicle ([1]; 4 h, MDA-MB-231 cells) | Densitometry (% of control), BRD4-immunoreactive band relative to DMSO vehicle ([1]; 8 h, MDA-MB-231 cells) | Densitometry (% of control), BRD4-immunoreactive band relative to DMSO vehicle ([1]; 16 h, MDA-MB-231 cells) | Densitometry (% of control), BRD4-immunoreactive band relative to DMSO vehicle ([1]; 24 h, MDA-MB-231 cells) | SMILES | dose-response of BRD4 degradation (in words) ([1]; 8 h, MDA-MB-231 cells) | BRD4 degradation in time-course experiments (in words) ([1]; MDA-MB-231 cells)
1 | abolish BRD4 degradation | 97.1 | 88 | 145 (≈ 112 µg/mL) | 48 (≈ 37 µg/mL) | 221.3 to 223.6 °C (dec.) |  |  |  |  | Cc1sc2c(c1C)C(c1ccc(Cl)cc1)=N[C@@H](CC(=O)NCC(=O)NCCCOc1cccc3c1C(=O)N(C1CCC(=O)NC1=O)C3=O)c1nnc(C)n1-2 (stereo partly drawn) [Compound 27, 2-((S)-4-(4-Chlorophenyl)-2,3,9-trimethyl-6H-thieno[3,2-f][1,2,4]triazolo[4,3-a][1,4]diazepin-6-yl)-N-(2-((3-((2-(2,6-dioxopiperidin-3-yl)-1,3-dioxoisoindolin-4-yl)oxy)propyl)amino)-2-oxoethyl)acetamide] | showed dose-dependency | decreased expression of BRD4 at all the time-points tested
2 |  |  |  | 48 (≈ 37.7 µg/mL) | 17 (≈ 13.3 µg/mL) | 231.9 to 232.6 °C (dec.) |  |  |  |  | Cc1sc2c(c1C)C(c1ccc(Cl)cc1)=N[C@@H](CC(=O)NCC(=O)NCCCCOc1cccc3c1C(=O)N(C1CCC(=O)NC1=O)C3=O)c1nnc(C)n1-2 (stereo partly drawn) [Compound 28, 2-((S)-4-(4-Chlorophenyl)-2,3,9-trimethyl-6H-thieno[3,2-f][1,2,4]triazolo[4,3-a][1,4]diazepin-6-yl)-N-(2-((4-((2-(2,6-dioxopiperidin-3-yl)-1,3-dioxoisoindolin-4-yl)oxy)butyl)amino)-2-oxoethyl)acetamide] |  | 
3 |  |  |  |  |  | 194.5 to 195.8 °C (dec.) | 110,8 % of control | 54,7 % of control | 41,4 % of control | 64,7 % of control | Cc1sc2c(c1C)C(c1ccc(Cl)cc1)=N[C@@H](CC(=O)N1CCN(CC(=O)NCCOCCOCCOc3cccc4c3C(=O)N(C3CCC(=O)NC3=O)C4=O)CC1)c1nnc(C)n1-2 (stereo partly drawn) [Compound 36, 2-(4-(2-((S)-4-(4-Chlorophenyl)-2,3,9-trimethyl-6H-thieno[3,2-f][1,2,4]triazolo[4,3-a][1,4]diazepin-6-yl)acetyl)piperazin-1-yl)-N-(2-(2-(2-((2-(2,6-dioxopiperidin-3-yl)-1,3-dioxoisoindolin-4-yl)oxy)ethoxy)ethoxy)ethyl)acetamide] |  | 
4 |  |  |  |  |  | 164.3 to 165.5 °C | 50 % of control | 65,6 % of control |  |  | Cc1ncsc1-c1ccc(CNC(=O)[C@@H]2C[C@@H](O)CN2C(=O)[C@@H](NC(=O)CCCNC(=O)CN2CCN(C(=O)C[C@@H]3N=C(c4ccc(Cl)cc4)c4c(sc(C)c4C)-n4c(C)nnc43)CC2)C(C)(C)C)cc1 [Compound 47, (2S,4R)-1-((S)-2-(4-(2-(4-(2-((S)-4-(4-Chlorophenyl)-2,3,9-trimethyl-6H-thieno[3,2-f][1,2,4]triazolo[4,3-a][1,4]diazepin-6-yl)acetyl)piperazin-1-yl)acetamido)butanamido)-3,3-dimethylbutanoyl)-4-hydroxy-N-(4-(4-methylthiazol-5-yl)benzyl)pyrrolidine-2-carboxamide] |  | 

The next lines start with the compound.

Row | SMILES | effect of cotreatment with proteasome inhibitor bortezomib on BRD4 degradation ([1]; 8 h) | DC50 [1, 3] [nM] | Dmax ([1]; 8 h treatment, MDA-MB-231 cells, from Western blot densitometry, read-out: Dmax (maximal % of reduction toward DMSO control lane)) [%] | solubility thermodynamic at 2 h [2, 4] [µM] | solubility thermodynamic at 2 h [2, 5] [µM] | melting point | Densitometry (% of control), BRD4-immunoreactive band relative to DMSO vehicle ([1]; 4 h, MDA-MB-231 cells) | Densitometry (% of control), BRD4-immunoreactive band relative to DMSO vehicle ([1]; 8 h, MDA-MB-231 cells) | Densitometry (% of control), BRD4-immunoreactive band relative to DMSO vehicle ([1]; 16 h, MDA-MB-231 cells) | Densitometry (% of control), BRD4-immunoreactive band relative to DMSO vehicle ([1]; 24 h, MDA-MB-231 cells) | dose-response of BRD4 degradation (in words) ([1]; 8 h, MDA-MB-231 cells) | BRD4 degradation in time-course experiments (in words) ([1]; MDA-MB-231 cells)
5 | Cc1sc2c(c1C)C(c1ccc(Cl)cc1)=N[C@@H](CC(=O)N1CCN(CC(=O)NCCCCOc3cccc4c3C(=O)N(C3CCC(=O)NC3=O)C4=O)CC1)c1nnc(C)n1-2 (stereo partly drawn) [Compound 33, 2-(4-(2-((S)-4-(4-Chlorophenyl)-2,3,9-trimethyl-6H-thieno[3,2-f][1,2,4]triazolo[4,3-a][1,4]diazepin-6-yl)acetyl)piperazin-1-yl)-N-(4-((2-(2,6-dioxopiperidin-3-yl)-1,3-dioxoisoindolin-4-yl)oxy)butyl)acetamide] | abolish BRD4 degradation | 89.9 |  |  |  | 229.4 to 230 °C (dec.) | 51,8 % of control | 23,1 % of control | 17,4 % of control | 24,4 % of control | degradation was observed only at 1 and 3 μM concentrations | able to induce BRD4 degradation, although the onset of this effect was delayed (after 8 h)
6 | Cc1sc2c(c1C)C(c1ccc(Cl)cc1)=N[C@@H](CC(=O)N1CCN(CC(=O)NCCOCCOc3cccc4c3C(=O)N(C3CCC(=O)NC3=O)C4=O)CC1)c1nnc(C)n1-2 (stereo partly drawn) [Compound 35, 2-(4-(2-((S)-4-(4-Chlorophenyl)-2,3,9-trimethyl-6H-thieno[3,2-f][1,2,4]triazolo[4,3-a][1,4]diazepin-6-yl)acetyl)piperazin-1-yl)-N-(2-(2-((2-(2,6-dioxopiperidin-3-yl)-1,3-dioxoisoindolin-4-yl)oxy)ethoxy)ethyl)acetamide] |  |  |  |  |  | 173.8 to 174.5 °C (dec.) | 107,8 % of control | 40,1 % of control | 39,2 % of control | 72,1 % of control |  | 
7 | Cc1ncsc1-c1ccc(CNC(=O)[C@@H]2C[C@@H](O)CN2C(=O)[C@@H](NC(=O)CNC(=O)CN(C)C(=O)C[C@@H]2N=C(c3ccc(Cl)cc3)c3c(sc(C)c3C)-n3c(C)nnc32)C(C)(C)C)cc1 [Compound 45, (2S,4R)-1-((S)-2-(2-(2-(2-((S)-4-(4-Chlorophenyl)-2,3,9-trimethyl-6H-thieno[3,2-f][1,2,4]triazolo[4,3-a][1,4]diazepin-6-yl)-N-methylacetamido)acetamido)acetamido)-3,3-dimethylbutanoyl)-4-hydroxy-N-(4-(4-methylthiazol-5-yl)benzyl)pyrrolidine-2-carboxamide] (JQ1acid-[Sar]G[Tle][Hyp]-{NHBn(4-(4-Me-thiazol-5-yl))}) |  |  |  |  |  | 114.6 to 116 °C | 41,6 % of control | 107,9 % of control |  |  |  | 
8 | Cc1ncsc1-c1ccc(CNC(=O)[C@@H]2C[C@@H](O)CN2C(=O)[C@@H](NC(=O)CNC(=O)CN2CCN(C(=O)C[C@@H]3N=C(c4ccc(Cl)cc4)c4c(sc(C)c4C)-n4c(C)nnc43)CC2)C(C)(C)C)cc1 [Compound 46, (2S,4R)-1-((S)-2-(2-(2-(4-(2-((S)-4-(4-Chlorophenyl)-2,3,9-trimethyl-6H-thieno[3,2-f][1,2,4]triazolo[4,3-a][1,4]diazepin-6-yl)acetyl)piperazin-1-yl)acetamido)acetamido)-3,3-dimethylbutanoyl)-4-hydroxy-N-(4-(4-methylthiazol-5-yl)benzyl)pyrrolidine-2-carboxamide] |  |  |  |  |  | 183.3 to 184.8 °C | 61,7 % of control | 135 % of control |  |  |  | 
